Results: PMC8149832, “A comparative study of synthetic winged peptides for absolute protein quantification” (Scientific Reports, 2021)
Ends that are not written are not given here.

These substances were tested against T1, Trypsin (Sus scrofa, UniProt P00761) (assay: Trypsin digestion efficiency / kinetics of signature peptide formation). Conditions: trypsin 1:20 w/w, 37 °C, AmBic/SDC buffer with 5% ACN reconstitution; 0.5-24 h; SRM peak area; Figs. 4, S3, S4.
T1 construct: purchased Promega V5280
T1 sequence (P00761 9-231): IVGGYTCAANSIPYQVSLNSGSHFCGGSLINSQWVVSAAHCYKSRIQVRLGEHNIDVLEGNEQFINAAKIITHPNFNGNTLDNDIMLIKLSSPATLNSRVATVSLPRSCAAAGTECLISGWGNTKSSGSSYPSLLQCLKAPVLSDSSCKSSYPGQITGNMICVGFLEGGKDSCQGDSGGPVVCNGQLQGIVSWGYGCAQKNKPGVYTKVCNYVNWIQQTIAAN
Format: biochemical
Method: HSA concentration in the pooled serum sample diluted twofold with ultrapure water was determined using BCG albumin assay kit on the 96-well plate format (cat. #MAK124-1KT, Sigma-Aldrich). The seven-point calibration series was prepared using HSA standard (5 to 50 mg/mL) in ultrapure water. The absorption spectrophotometry was measured at 620 nm wavelength. The pooled serum sample (10 µL), diluted 2000-fold using 50 mM AmBic with 5 mg/mL SDC (AmBic/SDC buffer) to HSA concentration of approx. 500 nM and transferred into a clean microcentrifuge tube. After adding SIL protein or peptide internal standard (10 µL), the sample was reduced (adding 1 µL of 200 mM DTT stock solution, 95 °C, 10 min), cooled down to ambient temperature, and cysteine residues were alkylated (adding 1 µL of 400 mM IAAstock solution, ambient temperature, 30 min in the dark). Trypsin was added to the sample in a 1:20 ratio (w/w enzyme to total protein content), and samples were incubated (37 °C, 16 h) in microcentrifuge tubes sealed with a paraffin film. The enzymatic proteolysis was quenched at different time points (0.5, 2, 4, 8, 16, and 24 h; n = 3) to optimize the incubation time. The proteolysis was quenched by adding 200 µL of 2% FA in water (pH < 3), and tryptic peptides were desalted using a mixed-mode SPE cartridge in a 96-well plate format (Oasis PRIME HLB, Waters, Milford, MA). Samples were loaded onto the SPE cartridge, washed (300 µL water with 2% FA, pH < 3), eluted (50% ACN; 2% FA in water, pH < 3), and the extract was dried in a vacuum concentrator centrifuge (Savant SPD121 P SpeedVac, Thermo Fisher). Samples were dissolved (10 µL) in 5% ACN with 0.1% FA in water before UHPLC-SRM analysis. […]
The enzymatic digestion efficiency severely affects the quantitative performance of a protein assay[10],[11]. […] Overnight trypsin digestion is routinely used for reproducible proteolytic yields as the peptide's stability and formation efficiency may vary[11]. Maximal trypsinization yields of some signature peptides are reached within two hours[10],[16], while other peptides require longer digestion time[30]. We optimized the trypsin digestion duration to ensure reproducible signature peptide yields needed for a quantitative protein assay. We studied the signature peptide formation from light HSA protein and each version of SIL-Ex peptides after 0.5, 2, 4, 8, 16, and 24 h of incubation. SRM peak areas of light and heavy signature peptides and determined HSA protein concentrations (nM) were plotted against incubation time (h), comparing the efficiency of light HSA proteolysis with SIL-Ex peptides (Figs. 4, S3 and S4). The formation of HSA signature peptides LVNE, SLHT, DDNP, YLYE, and QTAL was compared for SIL-TCT, SIL-ExC5, SIL-ExC3N3, and SIL-ExC5N5 peptides (Fig. 4). Besides, the formation of HSA signature peptides DLGE, LCTV, LVTD, TYET, and FQNA was compared for SIL-TCT and SIL-ExC5 peptides only (Fig. S4).
For DDNPNLPRLVRPE, the “formation of signature peptide by trypsin digestion, rate or yield (in words)” value (shortened to “formation of signature peptide”) was “rapidly formed signature peptide DDNP”.
In the case of DDNPNLPRSAnYG [SIL-TCT DDNPNLPR], the “formation of signature peptide” value is reported as “rapidly formed signature peptide DDNP”.
With “FLQHKDDNPNLPRLVRPE [SIL signature peptide extended with five amino acids at both C- and N-termini]” the “formation of signature peptide” value was “mimicking the slow digestion kinetics of light HSA protein”.
In the case of “LQHKDDNPNLPRLVR [SIL signature peptide extended with three amino acids at both C- and N-termini]”, the “formation of signature peptide” value is reported as “mimicking the slow digestion kinetics of light HSA protein”.
In the case of “RQIKKQTALVELVKHKPKA [SIL signature peptide extended with five amino acids at both C- and N-termini]”, the “formation of signature peptide” value is reported as “lower”.
“TFLKKYLYEIARRHPYF (also: stable isotope label, residues not given here) [SIL-ExC5N5 YLYEIAR, SIL signature peptide extended with five amino acids at both C- and N-termini]” was tested, and the “formation of signature peptide” value was “lower”.

Same assay, conditions: trypsin 1:20 w/w, 37 °C, AmBic/SDC buffer; quenched at 0.5, 2, 4, 8, 16, 24 h, n = 3; SRM peak area; Fig. S4
In the case of DLGEENFKALVLI, the “time to plateau of signature peptide formed from C-terminal extended SIL peptide (in words)” value (from here on “time to plateau”) is reported as “within the initial two hours”.
With DLGEENFKSAnYG [SIL-TCT DLGEENFK] the “time to plateau” value was “within the initial two hours”.
For LC*TVATLRETYGE, the “time to plateau” value was “within the initial two hours”.
With LC*TVATLRSAnYG [SIL-TCT LCTVATLR] the “time to plateau” value was “within the initial two hours”.
